Series [1] is described as follows: log P determination by HPLC (EEC Directive 79/831 Annex V.A8). The class given is physicochemical. Here is the method: The measurements were carried out using an Agilent 1100 LC system with a 50*4.6 Zorbax Eclipse C18 1.8 μm column (oven temperature 55° C., flow rate 2.0 ml/min).
The following mobile phases were used:
Mobile phase A: acetonitrile+1000 μl of formic acid/l
Mobile phase B: Millipore water+900 μl of formic acid/l

The test system of series [2] is caterpillars of the armyworm (Spodoptera frugiperda). Put plainly: Spodoptera frugiperda test (SPODFR spray treatment). The format is in vivo. Particulars: Spodoptera frugiperda, foliar, read-out: effect in % (caterpillars killed). The source says: (§1) Solvent: 78.0 parts by weight of acetone
For series [3], the system named is green peach aphid (Myzus persicae). Put plainly: Myzus test (MYZUPE spray treatment). The following applies: Myzus persicae, foliar, read-out: effect in % (aphids killed). The format is in vivo.
Source text: Solvent: 78 parts by weight of acetone
as §1

For series [4], the system named is Lucilia cuprina larvae. Put plainly: Lucilia cuprina test (LUCICU). The class given is in vivo. Particulars: in Equus caballus, read-out: kill in % (larvae killed). As for the experimental part:
(§2) Solvent: dimethyl sulphoxide
Vessels containing horse meat treated with the active compound preparation of the desired concentration are populated with Lucilia cuprina larvae.
(§3) After the desired period of time, the kill in % is determined.

Series [5] concerns Boophilus microplus. Put plainly: Boophilus microplus test (BOOPMI injection). The class given is in vivo. Particulars: Rhipicephalus microplus; 20 μg/animal, injection into the abdomen; read-out: effect in % (no fertile eggs laid). As for the experimental part:
as §2
The solution of active compound is injected into the abdomen (Boophilus microplus), and the animals are transferred into dishes and kept in a climatised room. The activity is assessed by […] of fertile eggs.
100% means that none of the ticks has laid any fertile eggs.

Series [6] relates to adult Musca domestica. Put plainly: Musca domestica test (MUSCDO). The class given is in vivo. The following applies: treated sponge, read-out: kill in % (flies killed). Here is the method:
as §2
Vessels containing a sponge treated with the active compound preparation of the desired concentration are populated with adult Musca domestica.
as §3

Series [7] has as its system larvae of the mustard beetle (Phaedon cochleariae). Put plainly: Phaedon test (PHAECO spray treatment). The following applies: Phaedon cochleariae, in Brassica rapa, foliar, read-out: effect in % (beetle larvae killed).
In series [8] the test system is two-spotted spidermite (Tetranychus urticae). Put plainly: Tetranychus urticae test; OP-resistant (TETRUR spray application). The class given is in vivo. Particulars: read-out: mortality in % (spider mites killed). The source says: Solvent: 78.0 parts by weight acetone
• 1.5 parts by weight dimethylformamide Emulsifier 0.5 part by weight alkylaryl polyglycol ether
French beans (Phaseolus vulgaris) which are heavily infested with all stages of the two-spotted spidermite (Tetranychus urticae) are sprayed with a preparation of the active compound at the desired concentration.

The text below walks through data of patent publication US8324390B2, “Tetrazole-substituted anthranilamides as pesticides” (Bayer CropScience AG, priority 2008, dated 2012).

As usually defined, the mortality is the share of the test organisms that died.

Read-outs that look alike come from different tables or passages of the source. Bounds are passed on as bounds.

Turning to `CNC(=O)c1cc(Cl)cc(C)c1NC(=O)c1cc(Cn2nnc(C(F)(F)F)n2)nn1-c1ncccc1Cl` [Example 11], the chromatographic logP in series [1] (log P) is 3.05. For the same compound, the pest or weed control at 100 g/ha in series [2] (in Zea mays), in series [3] (in Brassica rapa) and in series [7] was no less than 80% in each case. Moreover, the pest or weed control at 100 ppm in series [4] and in series [6] was no less than 80% throughout. The pest or weed control at 0.02 mg in series [5] was no less than 80%.

Turning to `Cc1cc(C#N)cc(C(=O)NC2CC2)c1NC(=O)c1cc(Cn2nnc(C(F)(F)F)n2)nn1-c1ncccc1Cl` [Example 13], in series [1] (log P), the chromatographic logP was determined as 2.84. The pest or weed control at 100 g/ha in series [2] (in Zea mays), in series [3] (in Brassica rapa) and in series [7] was no less than 80% each time. Also, the pest or weed control at 100 ppm in series [4] and in series [6] was no less than 80% each time. In addition, in series [5], the pest or weed control at 0.02 mg is no less than 80%.

`CC(C)(C)NC(=O)c1cc(Cl)cc(Cl)c1NC(=O)c1cc(Cn2nnc(C(F)(F)C(F)(F)F)n2)nn1-c1ncccc1Cl` [Example 223] returned a chromatographic logP in series [1] (log P) of 4.16. For the same compound, the pest or weed control at 100 g/ha in series [2] (in Zea mays), in series [3] (in Brassica rapa) and in series [7] was no less than 80% throughout. Further, the pest or weed control at 100 ppm in series [4] and in series [6] was no less than 80% each time. The pest or weed control at 0.02 mg in series [5] was no less than 80%.

`Cc1cc(Cl)cc(C(=O)NC(C)C)c1NC(=O)c1cc(Cn2nnc(C(F)(C(F)(F)F)C(F)(F)F)n2)nn1-c1ncccc1Cl` [Example 363] showed a chromatographic logP in series [1] (log P) of 4.21. In addition, the pest or weed control at 100 g/ha in series [2] (in Zea mays) and in series [7] was no less than 80% throughout. In series [8], the mortality at 20 g/ha was no less than 80%.

For the compound `CNC(=O)c1cc(Cl)cc(C)c1NC(=O)c1cc(Cn2nnnc2C(F)(F)F)nn1-c1ccc(Cl)cc1Cl` [Example 449], in series [1] (reversed-phase HPLC, Zorbax Eclipse C18 column, determined by HPLC according to EEC Directive 79/831 Annex V.A8, read-out: log P), the chromatographic logP worked out at 3.64. The pest or weed control at 100 g/ha in series [2] (application rate 100 g/ha, maize leaf discs) was no less than 80%; in series [3] (application rate 100 g/ha, Chinese cabbage leaf discs), no less than 80%; in series [7], no less than 80%. In series [8], the mortality at 20 g/ha is no less than 80%.
